Assay results published in PubChem BioAssay (NCI).
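Step 1: Grow cells in 96-well plates. Step 2: Expose to compound for 48 hours at 5 concentrations. Step 3: Interpolate endpoints linearly; if unreached, use highest concentration. TGI: total growth inhibition.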 Peptide text beside a SMILES is read from it. * marks the point of attachment. X34 = O=C(c1ccc(-c2ccc(Cl)cc2Cl)o1)*

Legend:
Assay in all cases: inhibition of tumour cell growth, NCI panel, 48 h
MALME-3M melanoma = test system: MALME-3M melanoma
U251 CNS = test system: U251 CNS
HOP-92 NSCLC = test system: HOP-92 NSCLC
IGROV1 ovarian = test system: IGROV1 ovarian
CCRF-CEM leukemia = test system: CCRF-CEM leukemia
SNB-75 CNS = test system: SNB-75 CNS
SF-295 CNS = test system: SF-295 CNS
OVCAR-4 ovarian = test system: OVCAR-4 ovarian
CAKI-1 renal = test system: CAKI-1 renal
SF-268 CNS = test system: SF-268 CNS
A549 NSCLC = test system: A549 NSCLC
SW-620 colon = test system: SW-620 colon
MCF7 breast = test system: MCF7 breast
MOLT-4 leukemia = test system: MOLT-4 leukemia
LOX IMVI melanoma = test system: LOX IMVI melanoma
BT-549 breast = test system: BT-549 breast
UO-31 renal = test system: UO-31 renal
MDA-N = test system: MDA-N
COLO 205 colon = test system: COLO 205 colon

CCCCC(=O)c1c(O)ccc2c(C)cc(=O)oc12
TGI (MALME-3M melanoma): > 100 µM
TGI (U251 CNS): > 100 µM
TGI (HOP-92 NSCLC): > 100 µM
TGI (IGROV1 ovarian): > 100 µM
TGI (CCRF-CEM leukemia): > 100 µM
TGI (SNB-75 CNS): > 100 µM
TGI (SF-295 CNS): > 100 µM
TGI (OVCAR-4 ovarian): > 100 µM
TGI (CAKI-1 renal): > 100 µM
TGI (SF-268 CNS): > 100 µM
TGI (A549 NSCLC): > 100 µM
TGI (SW-620 colon): > 100 µM
TGI (MCF7 breast): > 100 µM
TGI (MOLT-4 leukemia): > 100 µM
TGI (LOX IMVI melanoma): > 100 µM
TGI (BT-549 breast): > 100 µM
TGI (UO-31 renal): > 100 µM
TGI (MDA-N): > 100 µM
TGI (COLO 205 colon): > 100 µM

CC1(O)C2(c3ccccc3)CCC[N+]1(C)CC2 (stereo unspecified)
TGI (MALME-3M melanoma): > 100 µM
TGI (U251 CNS): > 100 µM
TGI (HOP-92 NSCLC): > 100 µM
TGI (IGROV1 ovarian): > 100 µM
TGI (CCRF-CEM leukemia): > 100 µM
TGI (SNB-75 CNS): > 100 µM
TGI (SF-295 CNS): > 100 µM
TGI (OVCAR-4 ovarian): > 100 µM
TGI (CAKI-1 renal): > 100 µM
TGI (SW-620 colon): > 100 µM
TGI (MCF7 breast): > 100 µM
TGI (MOLT-4 leukemia): > 100 µM
TGI (LOX IMVI melanoma): > 100 µM
TGI (BT-549 breast): > 100 µM
TGI (UO-31 renal): > 100 µM
TGI (MDA-N): > 100 µM
TGI (COLO 205 colon): > 100 µM

Cc1cn(C2CC(N=[N+]=[N-])C(CO)O2)c(=O)n(CCCCBr)c1=O (stereo unspecified)
TGI (MALME-3M melanoma): > 100 µM
TGI (U251 CNS): 44.6 µM
TGI (HOP-92 NSCLC): > 100 µM
TGI (IGROV1 ovarian): > 100 µM
TGI (CCRF-CEM leukemia): > 100 µM
TGI (SNB-75 CNS): > 100 µM
TGI (SF-295 CNS): > 100 µM
TGI (OVCAR-4 ovarian): > 100 µM
TGI (CAKI-1 renal): > 100 µM
TGI (SF-268 CNS): > 100 µM
TGI (A549 NSCLC): > 100 µM
TGI (SW-620 colon): > 100 µM
TGI (MCF7 breast): > 100 µM
TGI (MOLT-4 leukemia): > 100 µM
TGI (LOX IMVI melanoma): > 100 µM
TGI (BT-549 breast): > 100 µM
TGI (UO-31 renal): > 100 µM
TGI (MDA-N): > 100 µM
TGI (COLO 205 colon): > 100 µM

Cn1c2ccccc2c2c3c(c4c5ccccc5n(C5OC(CO)C(O)C(O)C5O)c4c21)C(=O)OC3=O (stereo unspecified)
TGI (MALME-3M melanoma): > 100 µM
TGI (U251 CNS): > 100 µM
TGI (HOP-92 NSCLC): > 100 µM
TGI (IGROV1 ovarian): > 100 µM
TGI (CCRF-CEM leukemia): > 100 µM
TGI (SNB-75 CNS): > 100 µM
TGI (SF-295 CNS): > 100 µM
TGI (OVCAR-4 ovarian): > 100 µM
TGI (CAKI-1 renal): > 100 µM
TGI (SF-268 CNS): > 100 µM
TGI (A549 NSCLC): > 100 µM
TGI (SW-620 colon): > 100 µM
TGI (MCF7 breast): > 100 µM
TGI (MOLT-4 leukemia): > 100 µM
TGI (LOX IMVI melanoma): > 100 µM
TGI (BT-549 breast): > 100 µM
TGI (UO-31 renal): > 100 µM
TGI (MDA-N): > 100 µM
TGI (COLO 205 colon): > 100 µM

COC(=O)C(CC(C)C)NC(=O)C(Cc1ccccc1)NC(=O)C1CCCN1C(=O)C(CO)NC(=O)c1ccc(-c2ccc(Cl)cc2Cl)o1 (stereo unspecified) (X34-SPFL-OMe; configuration not given here)
TGI (MALME-3M melanoma): > 100 µM
TGI (U251 CNS): 55.9 µM
TGI (HOP-92 NSCLC): 63.9 µM
TGI (CCRF-CEM leukemia): > 100 µM
TGI (SNB-75 CNS): 88.8 µM
TGI (SF-295 CNS): 46.5 µM
TGI (OVCAR-4 ovarian): > 100 µM
TGI (CAKI-1 renal): > 100 µM
TGI (SF-268 CNS): > 100 µM
TGI (A549 NSCLC): 91.2 µM
TGI (SW-620 colon): > 100 µM
TGI (MCF7 breast): > 100 µM
TGI (MOLT-4 leukemia): 80 µM
TGI (LOX IMVI melanoma): 47.9 µM
TGI (BT-549 breast): 75.7 µM
TGI (UO-31 renal): 65.2 µM
TGI (MDA-N): > 100 µM
TGI (COLO 205 colon): 30.8 µM

CN1c2c(nc(N)[nH]c2=O)NCC1CCNc1ccc(C(=O)NC(CCC(=O)O)C(=O)O)cc1 (stereo unspecified)
TGI (MALME-3M melanoma): 2770 µM
TGI (U251 CNS): 2080 µM
TGI (HOP-92 NSCLC): 2900 µM
TGI (IGROV1 ovarian): 2470 µM
TGI (CCRF-CEM leukemia): 1000 µM
TGI (SNB-75 CNS): 2660 µM
TGI (SF-295 CNS): 2260 µM
TGI (OVCAR-4 ovarian): 2400 µM
TGI (CAKI-1 renal): 1290 µM
TGI (SF-268 CNS): 2710 µM
TGI (A549 NSCLC): 2620 µM
TGI (SW-620 colon): 1810 µM
TGI (MCF7 breast): 2030 µM
TGI (MOLT-4 leukemia): 2650 µM
TGI (LOX IMVI melanoma): 783 µM
TGI (BT-549 breast): 2750 µM
TGI (UO-31 renal): 2590 µM
TGI (MDA-N): 430 µM
TGI (COLO 205 colon): 2750 µM

O=C1/C(=C/C=C/c2ccccc2)N=C(c2ccccc2)N1c1ccc(S(=O)(=O)Nc2nccs2)cc1
TGI (MALME-3M melanoma): > 100 µM
TGI (U251 CNS): 59.3 µM
TGI (HOP-92 NSCLC): > 100 µM
TGI (IGROV1 ovarian): 44.5 µM
TGI (CCRF-CEM leukemia): > 100 µM
TGI (SNB-75 CNS): > 100 µM
TGI (SF-295 CNS): > 100 µM
TGI (OVCAR-4 ovarian): > 100 µM
TGI (CAKI-1 renal): > 100 µM
TGI (SF-268 CNS): 39.8 µM
TGI (A549 NSCLC): > 100 µM
TGI (SW-620 colon): > 100 µM
TGI (MCF7 breast): > 100 µM
TGI (MOLT-4 leukemia): > 100 µM
TGI (LOX IMVI melanoma): 55.1 µM
TGI (BT-549 breast): 61.4 µM
TGI (UO-31 renal): 29.9 µM
TGI (MDA-N): > 100 µM
TGI (COLO 205 colon): 35.5 µM

Nc1ncnc2c1ncn2[C@@H]1O[C@H](COP(=O)(O)OP(=O)(O)OC[C@H]2O[C@@H](OCCCO)[C@H](O)[C@@H]2O)[C@@H](O)[C@H]1O
TGI (MALME-3M melanoma): > 100 µM
TGI (U251 CNS): > 100 µM
TGI (HOP-92 NSCLC): > 100 µM
TGI (IGROV1 ovarian): > 100 µM
TGI (CCRF-CEM leukemia): > 100 µM
TGI (SNB-75 CNS): > 100 µM
TGI (SF-295 CNS): > 100 µM
TGI (OVCAR-4 ovarian): > 100 µM
TGI (CAKI-1 renal): > 100 µM
TGI (SF-268 CNS): > 100 µM
TGI (A549 NSCLC): > 100 µM
TGI (SW-620 colon): > 100 µM
TGI (MCF7 breast): > 100 µM
TGI (MOLT-4 leukemia): > 100 µM
TGI (LOX IMVI melanoma): > 100 µM
TGI (BT-549 breast): > 100 µM
TGI (UO-31 renal): > 100 µM
TGI (MDA-N): > 100 µM
TGI (COLO 205 colon): > 100 µM

CC(=O)OC12CC[N+]3(C)CCCCC3C1=Nc1ccccc12 (stereo unspecified)
TGI (MALME-3M melanoma): > 100 µM
TGI (U251 CNS): > 100 µM
TGI (HOP-92 NSCLC): > 100 µM
TGI (IGROV1 ovarian): > 100 µM
TGI (CCRF-CEM leukemia): > 100 µM
TGI (SNB-75 CNS): > 100 µM
TGI (SF-295 CNS): > 100 µM
TGI (OVCAR-4 ovarian): > 100 µM
TGI (CAKI-1 renal): > 100 µM
TGI (SF-268 CNS): > 100 µM
TGI (A549 NSCLC): > 100 µM
TGI (SW-620 colon): > 100 µM
TGI (MCF7 breast): > 100 µM
TGI (MOLT-4 leukemia): > 100 µM
TGI (LOX IMVI melanoma): > 100 µM
TGI (BT-549 breast): > 100 µM
TGI (UO-31 renal): > 100 µM
TGI (MDA-N): > 100 µM
TGI (COLO 205 colon): > 100 µM

CC[C@]1(Cc2ccc(OC)c(OC)c2)C2CC(C(=O)OC)ON2O[C@H](OCc2ccccc2)[C@@H]1OC(C)=O (stereo partly specified)
TGI (MALME-3M melanoma): > 100 µM
TGI (U251 CNS): > 100 µM
TGI (HOP-92 NSCLC): > 100 µM
TGI (IGROV1 ovarian): > 100 µM
TGI (CCRF-CEM leukemia): > 100 µM
TGI (SNB-75 CNS): > 100 µM
TGI (SF-295 CNS): > 100 µM
TGI (OVCAR-4 ovarian): > 100 µM
TGI (CAKI-1 renal): > 100 µM
TGI (A549 NSCLC): > 100 µM
TGI (SW-620 colon): > 100 µM
TGI (MCF7 breast): > 100 µM
TGI (MOLT-4 leukemia): > 100 µM
TGI (LOX IMVI melanoma): > 100 µM
TGI (BT-549 breast): > 100 µM
TGI (UO-31 renal): > 100 µM
TGI (MDA-N): > 100 µM
TGI (COLO 205 colon): > 100 µM
